From ChEMBL document CHEMBL1629472, “2-Acetylpyridine thiosemicarbazones: cytotoxic activity in nanomolar doses against malignant gliomas” (Eur J Med Chem, 2010) come the findings set out here.

Some results are limits rather than exact numbers.

A short description of series [1]: Cytotoxicity against human T98 cells expressing p53 mutant after 48 hrs by MTT assay. The settings on record: T98, 48 h. The class given is functional, cell-based.
Series [2] in a line: Cytotoxicity against rat RT2 cells expressing wild type p53 after 48 hrs by MTT assay. The class given is functional, cell-based. The settings on record: RT2, 48 h.
Series [3] is described as follows: Cytotoxicity against erythrocytes assessed as hemolysis. The class given is cell-based. Conditions: erythrocyte.

As a reminder, the IC50 is the concentration that gives 50% inhibition. The low end stands for higher potency, the high end for lower potency. With `C/C(=N\NC(=S)Nc1ccc(C)cc1)c1ccccn1`, the IC50 in series [1] was determined as 37 nM; in series [2] it was 17 nM. The Hemolytic concentration in series [3] is greater than 1 mM.
Take `C/C(=N\NC(=S)Nc1ccc(Cl)cc1)c1ccccn1`: the IC50 was 5.9 nM in series [1] and 3.7 nM in series [2]. Moreover, in series [3], the Hemolytic concentration is greater than 1 mM.
The like results for `C/C(=N\NC(=S)Nc1cccc(Cl)c1)c1ccccn1` were, in that order, 1 nM, 9 nM and greater than 1 mM.
The like results for `C/C(=N\NC(=S)Nc1ccccc1)c1ccccn1` were, in that order, 6.8 nM, 1.4 nM and greater than 1 mM.
For the molecule `C/C(=N\NC(=S)Nc1cccc(C)c1)c1ccccn1`, the values for the IC50 in series [1] and in series [2] were 50 nM and 24 nM, respectively. Also, the Hemolytic concentration in series [3] is greater than 1 mM.
In the same order, the values of `C/C(=N\NC(=S)Nc1ccccc1Cl)c1ccccn1` are 1.1 nM, 1.4 nM and greater than 1 mM.
In the same order, the values of `C/C(=N\NC(=S)Nc1ccccc1C)c1ccccn1` are 34 nM, 14 nM and greater than 1 mM.
